# What was measured:
# Rhizopusus stolonifer = experiment: Combination of vanillin and VOM (AIT) in MRE package, growth grid; format: cell-based, Rhizopus stolonifer; settings: Vanillin 0 ppm
# Protocol: (§1) Four bread spoilage organisms were used in determining the inhibition properties of vanillin and VOM: (1) Penicillium notatum, (2) Rhizopus stolonifer, (3) Aspergillus niger and (4) Saccharomycopsis fibuligera. For purposes of this analysis, Wasaouro® was used as the source of VOM. The antimicrobial tests were conducted in MRE air-impermeable laminated packages without bread. Petri dishes containing the appropriate growth medium were inoculated with a selected spoilage organism and then sealed with various concentrations of vanillin and/or Wasaouro®. The vanillin was incorporated directly into the growth medium while the Wasaouro® was kept separate from the organism within the MRE package. […] Wasaouro® was effective at low headspace concentrations (e.g. 17 μg/L (AIT)) with the exception of Rhizopus stolonifer which is resistant to AIT even at much higher concentrations.
# [1] = system: Rhizopusus stolonifer and Aspergillus niger; experiment: Combination of vanillin and VOM (AIT) in MRE package, growth grid, both fungi; format: cell-based, Rhizopus stolonifer and Aspergillus niger; settings: Vanillin 0 ppm
# Protocol: as §1
# Rhizopus stolonifer = experiment: Antimicrobial properties of VOM (Wasaouro vapor) alone in MRE package, growth/no growth; format: cell-based
# Protocol: (§2) Similarly, the antimicrobial properties of VOM (without vanillin) were evaluated against the four organisms shown in Table I. In order to evaluate the antimicrobial properties of VOM against each of these foregoing organisms, the modeling system employed several MRE packages. Each MRE package contained two Petri dishes. One Petri dish, 100 mm×15 mm, contained a medium and a selected organism. […] The cellulose filter pad for each 60 mm×15 mm Petri dish received a measured quantity of Wasaouro®. A stock solution of Wasaouro® powder was made and volumes of 100, 200, 400, 600, 800 and 1000 μl were added respectively to the filter pads of the 60 mm×15 mm Petri dishes for each group. […] The amount of the volatile active component of Wasaouro®, allyl isothiocyanate, was determined using gas chromatography. Each Petri dish in the first group was inoculated with Penicillium notatum, inoculum 10^5 spores/ml. Each Petri dish in the first group was then uncovered and placed in its own MRE impermeable laminated package. Similarly, each Petri dish in the second group of Petri dishes was inoculated with Rhizopus stolonifer, inoculum 10^5 spores/ml. Each Petri dish in the second group was then uncovered and then placed in its own MRE impermeable laminated package. In a similar manner, each Petri dish in the third group of Petri dishes was inoculated with Aspergillus niger, inoculum 10^5 spores/ml. Each Petri dish in the third group was then uncovered and then placed in its own MRE impermeable laminated package. Similarly, each Petri dish in the fourth group of Petri dishes was inoculated with Saccharomycopsis fibuligera, inoculum 10^5 spores/ml. Each Petri dish in the fourth group was then uncovered and then placed in its own MRE impermeable laminated package. All MRE packages (for all groups of Petri dishes) were then incubated at 25° C. for seven days. The determination of effectiveness of VOM as an antimicrobial agent was based on a growth or no growth basis. Petri dishes with no growth were left out for seven days after removal from the MRE package to ensure that there was no additional growth. For each experiment, a set of control MRE packages were made with the various concentrations of Wasaouro®. These control packages were used to extrapolate the relative amounts of allyl isothiocyanate in the experimental MRE packages at time zero.
# Penicillium notatum = experiment: as above; format: cell-based; settings: AIT by gas chromatography at time zero, 25° C., seven days
# Protocol: as §2
# [2] = system: Saccharomycopsis fibuligera; experiment: as above; format: cell-based; settings: AIT by gas chromatography at time zero, 25° C., seven days
# Protocol: as §2
# Aspergillus niger [3] = experiment: as above; format: cell-based; settings: AIT by gas chromatography at time zero, 25° C., seven days
# Protocol: as §2
# Aspergillus niger [4] = experiment: Combination of vanillin and VOM (AIT) in MRE package, growth grid; format: cell-based; settings: for growth of Aspergillus niger: Vanillin 0 ppm
# Protocol: as §1
# Next, both antimicrobial agents were tested against two of the more resistant organisms, Rhizopus stolonifer and Aspergillus niger.
structure (smiles),measurement,setting,value
"C=CCN=C=S [AIT, allyl isothiocyanate]",growth of Rhizopusus stolonifer,Rhizopusus stolonifer; AIT 55 ug/L,Growth
same,growth of Rhizopusus stolonifer,Rhizopusus stolonifer; AIT 145 ug/L,Growth
same,growth of Rhizopusus stolonifer,Rhizopusus stolonifer; AIT 150 ug/L,Growth
same,growth of Rhizopusus stolonifer,Rhizopusus stolonifer; AIT 420 ug/L,Growth
same,growth of Rhizopusus stolonifer,Rhizopusus stolonifer; AIT 465 ug/L,Growth
same,growth of Rhizopusus stolonifer,Rhizopusus stolonifer; AIT 905 ug/L,Growth
same,growth of Rhizopusus stolonifer and Aspergillus niger,[1]; AIT 55 ug/L,Growth
same,growth of Rhizopusus stolonifer and Aspergillus niger,[1]; AIT 145 ug/L,Growth
same,growth of Rhizopusus stolonifer and Aspergillus niger,[1]; AIT 150 ug/L,Growth
same,growth of Rhizopusus stolonifer and Aspergillus niger,[1]; AIT 420 ug/L,Growth
same,growth of Rhizopusus stolonifer and Aspergillus niger,[1]; AIT 465 ug/L,Growth
same,growth of Rhizopusus stolonifer and Aspergillus niger,[1]; AIT 905 ug/L,Growth
same,Effective Amount Of Allyl Isothiocyanate,"Rhizopus stolonifer; Wasaouro vapor in MRE package, AIT by gas chromatography at time zero, 25° C., seven days",>470 ppm
same,susceptibility of Rhizopus stolonifer to AIT,Rhizopus stolonifer; even at much higher concentrations than 17 μg/L,resistant
same,Effective Amount Of Allyl Isothiocyanate,Penicillium notatum,˜17 ppm
same,Effective Amount Of Allyl Isothiocyanate,[2],˜8 ppm
same,Effective Amount Of Allyl Isothiocyanate,Aspergillus niger [3],˜17 ppm
same,sensitivity of Aspergillus niger to AIT,Aspergillus niger [4],very sensitive
same,growth of Aspergillus niger,Aspergillus niger [4]; AIT 55 ug/L,Growth
same,growth of Aspergillus niger,Aspergillus niger [4]; AIT 145 ug/L,N/G
same,growth of Aspergillus niger,Aspergillus niger [4]; AIT 150 ug/L,Growth
same,growth of Aspergillus niger,Aspergillus niger [4]; AIT 420 ug/L,N/G
same,growth of Aspergillus niger,Aspergillus niger [4]; AIT 465 ug/L,N/G
same,growth of Aspergillus niger,Aspergillus niger [4]; AIT 905 ug/L,N/G

# Source: patent US20050196492A1, “Food preservative method and system using vanillin and constituent having isothiocynate compound” (priority 2004, published 2005)
